One substance from patent US20260242776A1, “Modification of tRNA T-Stem for Enhancing N-Methyl Amino Acid Incorporation” (priority 2019, published 2026) can be followed below.

*1 amine or outer side, *2 acyl side, *3 side chain or, on linkers, in order; H or OH if unused. Where no end group is shown, it is not given here. [ ]: non-standard residue; d: D form. The star is where a group is joined. MeYm = N-methyl-p-methoxyphenylalanine, COc1ccc(C[C@@H](C(=O)[*:2])N(C)[*:1])cc1; NMeY = CN[C@@H](Cc1ccc(O)cc1)C(=O)O; NMeF = CN[C@@H](Cc1ccccc1)C(=O)O; NMeNle = CCCC[C@H](NC)C(=O)O; NMeNva = CCC[C@H](NC)C(=O)O; NMeV = CN[C@H](C(=O)O)C(C)C; NMeS = CN[C@@H](CO)C(=O)O; NMeA = CN[C@@H](C)C(=O)O; Sar = CNCC(=O)O; For = O=C*

The assay deals with FIT system (reconstituted E. coli cell-free translation system). Kind of assay: In vitro translation in FIT system, peptide expression level by tricine-SDS-PAGE autoradiography. Format: biochemical. The conditions noted are these: mRNA14, 9 different ^MeAAs; control translation using 20 pAAs; FIG. 6d, 6e.

For the substance “P14: 32-mer model peptide composed of 9 respectively different ^MeAAs and 14 pAAs, translated from mRNA14 (For-MKKK[NMeS]HM[Sar][NMeV]TE[NMeNle]S[NMeY][NMeA]QN[MeYm]GW[NMeNva]R[NMeF]PDYKDDDDK)”, the “Expression efficiency relative to the control” value was 34%.
